Measured values as given in patent US11884750B2, “Cationic cell penetrating peptides and the use thereof” (CELLTROY CO., LTD., priority 2021, dated 2024).

Tests used:
[1] = test system: HaCAT cells; assay: Cell penetration efficiency in human epidermal (skin) cells, 4 μM, flow cytometry; format: cell-based; conditions: 4 μM FITC-conjugated CPP, one hour
Method in brief: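 HaCAT cells […] were grown 24 h in DMEM with 10% FBS at 37 °C, then treated 1 h with 4 μM FITC-conjugated peptide or FITC-TAT. Cells were trypsinised and washed in D-PBS. Intracellular fluorescence was read by flow cytometry.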

[2] = test system: SH-SY5Y cells; assay: Cell penetration efficiency in human neuroblastoma cells, 4 μM, flow cytometry; format: cell-based; conditions: one hour; for cell permeability compared with TAT: 4 μM FITC-conjugated CPP, flow cytometry; for Score / Score/TAT: 4 μM FITC-conjugated peptide; for Score: intracellular fluorescence by flow cytometry; for Score/TAT: ratio to FITC-conjugated TAT
Method in brief: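 SH-SY5Y cells cultured 24 h in DMEM/10% FBS at 37 °C, 5% CO2, then exposed to 4 μM FITC-conjugated peptide (FITC-TAT as reference) for 1 h. After trypsinisation and D-PBS washes, intracellular fluorescence measured by flow cytometry.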

[3] = test system: macrophages; assay: Cell penetration efficiency using macrophages; format: cell-based; conditions: macrophages differentiated from THP1 cells, 4 μM FITC-conjugated CPP, one hour
Procedure: (§1) Subsequently, to confirm whether the CPPs according to the present invention show excellent cell permeability into different types of cells/tissues, various tissue-derived cells were treated with biologically active molecule-conjugated CPPs to compare its delivery capacity with TAT. As in the previous examples, each cell was aliquoted in a plate at an appropriate density, and cultured in a 10% FBS-added medium under a condition of 37° C. and 5% CO2 for 24 hours. Subsequently, the cells were treated with 4 μM each of FITC-conjugated CPP or FITC-conjugated TAT and incubated for one hour. After the completion of the incubation, the cells were transferred to a sterile tube using 0.25% trypsin and centrifuged to remove the medium. Afterward, the cells were washed with 500 μL of D-PBS twice to completely remove the medium, and finally, resuspended in 400 μL of D-PBS and intracellular fluorescence was measured by flow cytometry (FACSCanto II). Macrophages were used by inducing differentiation from THP1 cells. Specifically, the THP-1 cells were aliquoted on a cover glass laid on a 24-well plate to have a density of 6×10^4 cells/well, and after the addition of 100 ng/mL of phorbol 12-myristate 13-acetate (PMA), the cells were incubated for 48 hours to induce the differentiation into macrophages. After 48 hours, the cells were washed with Dulbecco's phosphate buffered saline (DPBS) to perform an experiment.

[4] = test system: monocytes; assay: Cell penetration efficiency using monocytes; format: cell-based; conditions: 4 μM FITC-conjugated CPP, one hour
Procedure: as §1, with “II).” for “II). Macrophages were used by inducing differentiation from THP1 cells. Specifically, the THP-1 cells were aliquoted on a cover glass laid on a 24-well plate to have a density of 6×10^4 cells/well, and after the addition of 100 ng/mL of phorbol 12-myristate 13-acetate (PMA), the cells were incubated for 48 hours to induce the differentiation into macrophages. After 48 hours, the cells were washed with Dulbecco's phosphate buffered saline (DPBS) to perform an experiment.”

[5] = test system: HGB cell line; assay: Cell penetration efficiency in glioblastoma cells; format: cell-based, human; conditions: 4 μM FITC-conjugated CPP, one hour
Method in brief: (§2)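 Cells were grown 24 h at 37 °C in 10% FBS medium, then exposed to 4 μM FITC-labelled CPP or FITC-TAT for 1 h. After trypsinization and washing, intracellular fluorescence was measured by flow cytometry.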

[6] = test system: HDF cell line; assay: Cell penetration efficiency in skin cells (HDF); format: cell-based; conditions: 4 μM FITC-conjugated CPP, one hour
Method in brief: as §2

[7] = test system: HeLa cell line; assay: Cell penetration efficiency using cervical cancer cells; format: cell-based; conditions: 4 μM FITC-conjugated CPP, one hour
Method in brief: as §2

[8] = test system: HT1080 cell line; assay: Cell penetration efficiency using connective tissue (fibrosarcoma) cells; format: cell-based; conditions: 4 μM FITC-conjugated CPP, one hour
Method in brief: as §2

[9] = test system: HepG2 cell line; assay: Cell penetration efficiency using liver cells; format: cell-based; conditions: 4 μM FITC-conjugated CPP, one hour
Procedure: as §1, with “II).” for “II). Macrophages were used by inducing differentiation from THP1 cells. Specifically, the THP-1 cells were aliquoted on a cover glass laid on a 24-well plate to have a density of 6×10^4 cells/well, and after the addition of 100 ng/mL of phorbol 12-myristate 13-acetate (PMA), the cells were incubated for 48 hours to induce the differentiation into macrophages. After 48 hours, the cells were washed with Dulbecco's phosphate buffered saline (DPBS) to perform an experiment.”

[10] = test system: HEK293T cell line; assay: Cell penetration efficiency using kidney cells; format: cell-based; conditions: 4 μM FITC-conjugated CPP, one hour
Method in brief: as §2

[11] = test system: A-427 cell line; assay: Cell penetration efficiency using lung cells; format: cell-based; conditions: A-427 lung cells, 4 μM FITC-conjugated CPP, one hour
Method in brief: as §2

[12] = test system: SNU-46 cell line; assay: Cell penetration efficiency using laryngeal cells; format: cell-based; conditions: SNU-46 laryngeal cells, 4 μM FITC-conjugated CPP, one hour
Method in brief: as §2

AARIRALRRRRRRP [C72]
cell permeability compared with TAT [1]: higher cell permeability | cell permeability compared with TAT [2]: higher cell permeability | Score [2]: 1026 | Score/TAT [2]: 1.977 | cell permeability compared with TAT [3]: higher cell permeability | cell permeability compared with TAT [4]: higher cell permeability | cell permeability compared with TAT [5]: higher cell permeability | cell permeability compared with TAT [6]: higher cell permeability | cell permeability compared with TAT [7]: higher cell permeability | cell permeability compared with TAT [8]: higher cell permeability | cell permeability compared with TAT [9]: higher cell permeability | cell permeability compared with TAT [10]: higher cell permeability | cell permeability compared with TAT [11]: higher cell permeability | cell permeability compared with TAT [12]: higher cell permeability

ARLRVILRRRHPRR [C95]
cell permeability compared with TAT [1]: higher cell permeability | cell permeability compared with TAT [2]: higher cell permeability | Score [2]: 2417 | Score/TAT [2]: 4.657 | cell permeability compared with TAT [3]: higher cell permeability | cell permeability compared with TAT [4]: higher cell permeability | cell permeability compared with TAT [5]: higher cell permeability | cell permeability, fold of TAT [5]: ≥ 2 fold | cell permeability compared with TAT [6]: higher cell permeability | cell permeability compared with TAT [8]: higher cell permeability | cell permeability compared with TAT [9]: higher cell permeability | cell permeability compared with TAT [10]: higher cell permeability | cell permeability compared with TAT [11]: higher cell permeability | cell permeability compared with TAT [12]: higher cell permeability

LVPRRLRRRARRRK [C179]
cell permeability compared with TAT [1]: higher cell permeability | cell permeability compared with TAT [2]: higher cell permeability | Score [2]: 2076 | Score/TAT [2]: 4.000 | cell permeability compared with TAT [3]: higher cell permeability | cell permeability compared with TAT [4]: higher cell permeability | cell permeability compared with TAT [5]: higher cell permeability | cell permeability compared with TAT [6]: higher cell permeability | cell permeability compared with TAT [7]: higher cell permeability | cell permeability compared with TAT [8]: higher cell permeability | cell permeability compared with TAT [9]: higher cell permeability | cell permeability compared with TAT [10]: higher cell permeability | cell permeability compared with TAT [11]: higher cell permeability | cell permeability compared with TAT [12]: higher cell permeability

WPRRRLRLRHRARR [C113]
cell permeability compared with TAT [1]: higher cell permeability | cell permeability compared with TAT [2]: higher cell permeability | Score [2]: 1278 | Score/TAT [2]: 2.462 | cell permeability compared with TAT [3]: higher cell permeability | cell permeability compared with TAT [4]: higher cell permeability | cell permeability compared with TAT [5]: higher cell permeability | cell permeability compared with TAT [6]: higher cell permeability | cell permeability compared with TAT [7]: higher cell permeability | cell permeability compared with TAT [8]: higher cell permeability | cell permeability compared with TAT [9]: higher cell permeability | cell permeability compared with TAT [10]: higher cell permeability | cell permeability compared with TAT [11]: higher cell permeability | cell permeability compared with TAT [12]: higher cell permeability
